Tests used:
human TGR5 receptor = target: T1, human TGR5 receptor (Homo sapiens, UniProt Q8TDU6); assay: Human TGR5 cAMP production assay (hTGR5-CHO cells, DiscoveRx cAMP XS+ kit); format: cell-based; details: luminescent cAMP assay, read-out: Human TGR5 Lum. cAMP Activity (EC50)
T1 construct: host or cells: CHO-K1 (hTGR5-CHO)
T1 sequence (Q8TDU6 1-330): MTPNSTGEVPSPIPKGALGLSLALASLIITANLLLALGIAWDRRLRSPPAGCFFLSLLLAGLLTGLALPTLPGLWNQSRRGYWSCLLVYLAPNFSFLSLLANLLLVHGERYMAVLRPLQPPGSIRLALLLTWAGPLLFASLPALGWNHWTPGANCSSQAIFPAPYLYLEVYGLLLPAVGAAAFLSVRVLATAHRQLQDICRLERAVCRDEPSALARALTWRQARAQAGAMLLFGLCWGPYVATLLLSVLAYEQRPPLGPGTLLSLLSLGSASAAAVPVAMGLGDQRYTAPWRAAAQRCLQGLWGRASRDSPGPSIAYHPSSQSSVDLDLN
Outline: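 CHO-K1 cells stably expressing hTGR5, in PBS with IBMX and cAMP antibody, treated with half-log compound dilutions for 1 h at room temperature. cAMP measured by enzyme-fragment complementation luminescence after overnight detection; EC50 values reported.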

Mouse STC-1 cells = assay: STC-1 GLP-1 assay (GLP-1 secretion); format: cell-based; details: Mouse STC-1 cells, GLP-1 secretion, 2 h; read-out: Mouse STC-1 HTRF GLP-1 Activity (EC50)
Outline: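 Mouse STC-1 cells were plated two days ahead in DMEM with 10% charcoal-dextran stripped FBS, then exposed to compound in HBSS with protease inhibitors, DPP-IV inhibitor and 0.1% fatty acid free BSA for 2 h at 37° C. Active GLP-1 in supernatant was quantified by HTRF; EC50 derived from 12-point half-log curves.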

Row | SMILES | EC50 (human TGR5 receptor) [nM] | EC50 (Mouse STC-1 cells) [nM]
1 | COc1cc(C(F)(F)F)ccc1CCNC(=O)[C@@H]1CCN1c1cc(N2CCC(CCC(=O)O)CC2)nc(C(F)(F)F)n1 [Compound 239, (S)-3-(1-(6-(2-((2-methoxy-4-(trifluoromethyl)phenethyl)carbamoyl)azetidin-1-yl)-2-(trifluoromethyl)pyrimidin-4-yl)piperidin-4-yl)propanoic acid] | < 100 | < 100
2 | N#Cc1ccc(CCNC(=O)[C@@H]2CCN2c2cc(N3CCC(CCCC(=O)O)CC3)nc(C(F)(F)F)n2)cc1 [Compound 231, (S)-4-(1-(6-(2-((4-cyanophenethyl)carbamoyl)azetidin-1-yl)-2-(trifluoromethyl)pyrimidin-4-yl)piperidin-4-yl)butanoic acid] | < 100 | 100 to 999
3 | O=C(CCCC1CCN(c2cc(N3CCC[C@H]3C(=O)NCCc3ccc(C(F)(F)F)cc3)nc(C(F)(F)F)n2)CC1)NCCCS(=O)(=O)O [Compound 60, (S)-3-(4-(1-(2-(trifluoromethyl)-6-(2-((4-(trifluoromethyl)phenethyl)carbamoyl)pyrrolidin-1-yl)pyrimidin-4-yl)piperidin-4-yl)butanamido)propane-1-sulfonic acid] | < 100 | < 100
4 | N#Cc1ccc(CCNC(=O)[C@@H]2CCCN2c2cc(N3CCC(CCN)CC3)nc(C(F)(F)F)n2)cc1 [Compound 50, (S)-1-(6-(4-(2-aminoethyl)piperidin-1-yl)-2-(trifluoromethyl)pyrimidin-4-yl)-N-(4-cyanophenethyl)pyrrolidine-2-carboxamide] | < 100 | 1000 to 30000
5 | N#Cc1ccc(CCNC(=O)[C@@H]2CCN2c2cc(N3CCC(CCNC(=O)NCCS(N)(=O)=O)CC3)nc(C(F)(F)F)n2)cc1 [Compound 269, (S)—N-(4-cyanophenethyl)-1-(6-(4-(2-(3-(2-sulfamoylethyl)ureido)ethyl)piperidin-1-yl)-2-(trifluoromethyl)pyrimidin-4-yl)azetidine-2-carboxamide] | < 100 | < 100
6 | N#Cc1ccc(CCNC(=O)[C@@H]2CCCN2c2cc(N3CCC(CCCC(=O)O)CC3)cc(C(F)(F)F)n2)cc1 [Compound 197, (S)-4-(1-(2-(2-((4-cyanophenethyl)carbamoyl)pyrrolidin-1-yl)-6-(trifluoromethyl)pyridin-4-yl)piperidin-4-yl)butanoic acid] | < 100 | < 100
7 | N#Cc1ccc(CCNC(=O)[C@@H]2CCCN2c2cc(N3CCC(CCNC(=O)NCCC(=O)NCCS(=O)(=O)O)CC3)nc(C(F)(F)F)n2)cc1 [Compound 113, (S)-2-(3-(3-(2-(1-(6-(2-((4-cyanophenethyl)carbamoyl)pyrrolidin-1-yl)-2-(trifluromethyl)pyrimidin-4-yl)piperidin-4-yl)ethyl)ureido)-propanamido)-ethanesulfonic acid] | < 100 | 100 to 999
8 | N#Cc1ccc(CCNC(=O)[C@@H]2CCN2c2cc(N3CCC(CCCC(=O)NC[C@@H](O)CO)CC3)nc(C(F)(F)F)n2)cc1 [Compound 261, (S)-N-(4-cyanophenethyl)-1-(6-(4-(4-(((R)-2,3-dihydroxypropyl)amino)-4-oxobutyl)piperidin-1-yl)-2-(trifluoromethyl)pyrimidin-4-yl)azetidine-2-carboxamide] | < 100 | 100 to 999
9 | N#Cc1ccc(CCNC(=O)[C@@H]2CCCN2c2cc(N3CCC(CCCC(=O)NCCS(=O)(=O)O)CC3)nc(C(F)(F)F)n2)cc1 [Compound 61, (S)-2-(4-(1-(6-(2-((4-cyanophenethyl)carbamoyl)pyrrolidin-1-yl)-2-(trifluoromethyl)pyrimidin-4-yl)-piperidin-4-yl)butanamido)ethanesulfonic acid] | < 100 | < 100
10 | N#Cc1ccc(CCNC(=O)[C@@H]2CCCN2c2cc(N3CCC(CCO)CC3)nc(C(F)(F)F)n2)cc1 [Compound 22] | < 100 | < 100
11 | O=C(CCC1CCN(c2cc(N3CC[C@H]3C(=O)NCCc3ccc(C(F)(F)F)cc3)nc(C(F)(F)F)n2)CC1)NCS(=O)(=O)O [Compound 253, (S)-(3-(1-(2-(trifluoromethyl)-6-(2-((4-(trifluoromethyl)phenethyl)-carbamoyl)azetidin-1-yl)pyrimidin-4-yl)piperidin-4-yl)propanamido)-methanesulfonic acid] | < 100 | < 100
12 | N#Cc1ccc(CCNC(=O)[C@@H]2CCN2c2cc(N3CCC(CCNC(=O)NCCS(=O)(=O)O)CC3)nc(C(F)(F)F)n2)cc1 [Compound 271, (S)-2-(3-(2-(1-(6-(2-((4-cyanophenethyl)carbamoyl)azetidin-1-yl)-2-(trifluoromethyl)pyrimidin-4-yl)piperidin-4-yl)ethyl)ureido)-ethanesulfonic acid] | < 100 | < 100
13 | N#Cc1ccc(CCNC(=O)[C@@H]2CCCN2c2cc(N3CCC(CCCC(=O)NCCCS(=O)(=O)O)CC3)nc(C(F)(F)F)n2)cc1 [Compound 63, (S)-3-(4-(1-(6-(2-((4-cyanophenethyl)carbamoyl)pyrrolidin-1-yl)-2-(trifluoromethyl)pyrimidin-4-yl)-piperidin-4-yl)butanamido)propane-1-sulfonic acid] | < 100 | < 100
14 | N#Cc1ccc(CCNC(=O)[C@@H]2CCCN2c2cc(N3CCC(CCCC(=O)NCCC(=O)NC(CO)(CO)CO)CC3)nc(C(F)(F)F)n2)cc1 [Compound 109, (S)—N-(4-cyanophenethyl)-1-(6-(4-(4-((3-((1,3-dihydroxy-2-(hydroxymethyl)propan-2-yl)amino)-3-oxopropyl)amino)-4-oxobutyl)piperidin-1-yl)-2-(trifluoromethyl)-pyrimidin-4-yl)pyrrolidine-2-carboxamide] | < 100 | 100 to 999

Continued, values first:

Row | EC50 (human TGR5 receptor) [nM] | EC50 (Mouse STC-1 cells) [nM] | SMILES
15 | < 100 | 100 to 999 | N#Cc1ccc(CCNC(=O)[C@@H]2CCN2c2cc(N3CCC(CCNc4c(NCCS(=O)(=O)O)c(=O)c4=O)CC3)nc(C(F)(F)F)n2)cc1 [Compound 297, (S)-2-((2-((2-(1-(6-(2-((4-cyanophenethyl)carbamoyl)azetidin-1-yl)-2-(trifluoromethyl)pyrimidin-4-yl)piperidin-4-yl)ethyl)amino)-3,4-dioxocyclobut-1-en-1-yl)amino)ethanesulfonic acid]
16 | < 100 | 100 to 999 | N#Cc1ccc(CCNC(=O)[C@@H]2CCCN2c2cc(N3CCC(CCNc4c(NCP(=O)(O)O)c(=O)c4=O)CC3)nc(C(F)(F)F)n2)cc1 [Compound 369, (S)-(((2-((2-(1-(6-(2-((4-cyanophenethyl)carbamoyl)pyrrolidin-1-yl)-2-(trifluoromethyl)pyrimidin-4-yl)piperidin-4-yl)ethyl)amino)-3,4-dioxocyclobut-1-en-1-yl)amino)methyl)phosphonic acid]
17 | < 100 | < 100 | N#Cc1ccc(CCNC(=O)[C@@H]2CCN2c2cc(N3CCC(CCNC(=O)NCCOCCNC(=N)N)CC3)nc(C(F)(F)F)n2)cc1 [Compound 287, (S)-1-(6-(4-(1-amino-1-imino-9-oxo-5-oxa-2,8,10-triazadodecan-12-yl)piperidin-1-yl)-2-(trifluoromethyl)pyrimidin-4-yl)-N-(4-cyanophenethyl)azetidine-2-carboxamid]
18 | < 100 | < 100 | N#Cc1ccc(CCNC(=O)[C@@H]2CCN2c2cc(N3CCC(CCNS(=O)(=O)CCNC(=O)[C@@H](N)CS(=O)(=O)O)CC3)nc(C(F)(F)F)n2)cc1 [Compound 363, (R)-2-amino-3-((2-(N-(2-(1-(6-((S)-2-((4-cyanophenethyl)carbamoyl)azetidin-1-yl)-2-(trifluoromethyl)pyrimidin-4-yl)piperidin-4-yl)ethyl)sulfamoyl)ethyl)amino)-3-oxopropane-1-sulfonic acid]
19 | < 100 | 100 to 999 | N#Cc1ccc(CCNC(=O)[C@@H]2CCN2c2cc(N3CCC(CCCC(=O)NCCOCCNC(=N)N)CC3)nc(C(F)(F)F)n2)cc1 [Compound 284, (S)-N-(4-cyanophenethyl)-1-(6-(4-(4-((2-(2-guanidinoethoxy)-ethyl)amino)-4-oxobutyl)piperidin-1-yl)-2-(trifluoromethyl)pyrimidin-4-yl)azetidine-2-carboxamide]
20 | < 100 | 100 to 999 | N#Cc1ccc(CCNC(=O)[C@@H]2CCN2c2cc(N3CCC(CCCC(=O)NCCNC(=N)N)CC3)nc(C(F)(F)F)n2)cc1 [Compound 282, (S)—N-(4-cyanophenethyl)-1-(6-(4-(4-((2-guanidinoethyl)amino)-4-oxobutyl)piperidin-1-yl)-2-(trifluoromethyl)pyrimidin-4-yl)azetidine-2-carboxamide]
21 | < 100 | < 100 | N#Cc1ccc(CCNC(=O)[C@@H]2CCN2c2cc(N3CCC(CCNc4c(NCC(=O)O)c(=O)c4=O)CC3)nc(C(F)(F)F)n2)cc1 [Compound 302, (S)-2-((2-((2-(1-(6-(2-((4-cyanophenethyl)carbamoyl)azetidin-1-yl)-2-(trifluoromethyl)pyrimidin-4-yl)piperidin-4-yl)ethyl)amino)-3,4-dioxocyclobut-1-en-1-yl)amino)acetic acid]

— patent US10654834B2 (Venenum Biodesign, LLC, priority 2016, dated 2020)
